Measured values as given in patent US12630529B2, “GCN2 modulator compounds” (ALESTA THERAPEUTICS BV, priority 2020, dated 2026).

Experiments:
HT29 cells = assay: Growth of tumor spheroids; type: cell-based; details: 64 μM arginine, up to 120 hours, vs untreated spheroids
Description: The growth of tumor spheroids was evaluated following treatment of cells with Compound 1, Compound 2 and Compound 108. Briefly, HT29 cells were seeded at 5,000 cells/well in ultra-low attachment round bottom 96-well plates, in 100 μL SILAC DMEM Flex media without phenol red, supplemented with 10% fetal bovine serum (FBS), 1 g/L glucose, 2 mM glutamine, 220 μM lysine, and 64 μM arginine. The plates were centrifuged for 10 minutes at 125×g and put in a humidified incubator at 37° C. for 3 days before the onset of the experiment to allow spheroids to form.
Three days after seeding, 10 μM Compound 1, 10 μM Compound 2, 10 μM Compound 108 or 10 μM vehicle control (0.1% DMSO), were added together with 100 nM fluorescent apoptosis stain (e.g., YO-PRO™-1 Iodide; Thermo Fisher) to detect apoptotic cells and Nuclear-ID Red DNA Stain (1:100,000; ENZO Life Sciences) to detect live cells. Plates were placed in a live-cell imaging and analysis platform (e.g., IncuCyte ZOOM®; Essenbio) set up in a humidified incubator at 37° C. and scanned every 4 hours for up 120 hours, at 10× magnification, to determine relative spheroid size and cell death. Experiments were performed in quadruplicate and analyzed using live-cell imaging and analysis software (e.g., IncuCyte ZOOM® 2018A software; Essenbio).

CHOP (DDIT3) reporter = assay: GCN2-induction of CHOP and apoptosis in 3T3 fibroblasts with CHOP (DDIT3) reporter construct; type: cell-based, murine; details: for GCN2 activation / GCN2-induced CHOP activation: murine 3T3 CHOP (mCherry) reporter fibroblasts, increasing concentrations, in the presence of halofuginone or histidinol; for apoptosis induced by halofuginone / late-stage apoptosis induced by histidinol: murine 3T3 WT cells; for apoptosis induced by halofuginone: co-treatment with halofuginone; for late-stage apoptosis induced by histidinol: co-treatment with histidinol
Description: The CHOP construct comprised the […] (UTR) of mouse DDIT3 mRNA fused to a sequence encoding the fluorescent protein mCherry.
Cells were seeded at 5,000 cells per well in flat bottom 96-well plates in 100 μL DMEM low glucose media without phenol red, and supplemented with 10% FBS and 2 mM glutamine. After 24 hours, the exemplary compounds, and either tunicamycin, halofuginone, or histidinol, were added together with 100 nM of fluorescent apoptosis stain (YO-PRO™-1 Iodide; Thermo Fisher) to detect apoptotic cells. Cells were placed in a live-cell imaging and analysis platform (IncuCyte ZOOM®; Essenbio) set up in a humidified incubator at 37° C. and the plates were scanned every 4 hours for up 120 hours, at 10× magnification, to determine cell confluence and cell death. Experiments were performed in duplicate with 3 images collected per well, and analyzed using live-cell imaging and analysis software (IncuCyte ZOOM® 2018A software; Essenbio).

Row | Structure (SMILES) | spheroid size and viability (HT29 cells) | GCN2 activation / GCN2-induced CHOP activation (CHOP (DDIT3) reporter) | apoptosis induced by halofuginone (CHOP (DDIT3) reporter) | late-stage apoptosis induced by histidinol (CHOP (DDIT3) reporter)
1 | COc1ncc(Cl)cc1S(=O)(=O)Nc1ccc(F)c(-c2ccc3nc(N)ncc3c2)c1F [Compound 1] | relative reduction in spheroid size and viability in a dose-dependent manner | reduced GCN2 activation | effectively inhibited apoptosis | increased late-stage apoptosis
2 | Nc1ncc2cc(-c3c(F)ccc(NS(=O)(=O)c4cc(Cl)ccc4Cl)c3F)ccc2n1 [Compound 2] | relative reduction in spheroid size and viability in a dose-dependent manner | reduced GCN2 activation | effectively inhibited apoptosis | increased late-stage apoptosis
